Assay results reported in US11071731B2, “Allosteric modulators of the mu opioid receptor” (Chiromics, LLC, priority 2017, dated 2021).

Assays:
mu opioid receptor (MOR) [1] = target: T1, mu opioid receptor (MOR) (Homo sapiens, UniProt P35372); assay: PathHunter β-arrestin recruitment assay, PAM mode with EC20 endomorphin-1; assay type: cell-based; conditions: for EC50: read-out: β-arr. EC50
Summary of the method: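 β-Arrestin recruitment to the receptor was tracked by chemiluminescent β-galactosidase activity from complementing fragments (ED on receptor, EA on β-arrestin). Per-compound outputs were EC50 and percent maximal response.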

mu opioid receptor (MOR) [2] = target: T1, mu opioid receptor (MOR); assay: Hit Hunter cAMP signaling assay (adenylyl cyclase inhibition), PAM mode with EC20 endomorphin-1; assay type: cell-based
[3] = maximal response for β-arrestin recruitment
[4] = cAMP EC50, adenylyl cyclase inhibition
[5] = maximal response for adenylyl cyclase inhibition
[6] = maximal response, β-arrestin recruitment
[7] = maximal response, adenylyl cyclase inhibition
[8] = adenylyl cyclase inhibition, read-out: cAMP EC50

T1 sequence (P35372 whole entry, the tested form may be a part): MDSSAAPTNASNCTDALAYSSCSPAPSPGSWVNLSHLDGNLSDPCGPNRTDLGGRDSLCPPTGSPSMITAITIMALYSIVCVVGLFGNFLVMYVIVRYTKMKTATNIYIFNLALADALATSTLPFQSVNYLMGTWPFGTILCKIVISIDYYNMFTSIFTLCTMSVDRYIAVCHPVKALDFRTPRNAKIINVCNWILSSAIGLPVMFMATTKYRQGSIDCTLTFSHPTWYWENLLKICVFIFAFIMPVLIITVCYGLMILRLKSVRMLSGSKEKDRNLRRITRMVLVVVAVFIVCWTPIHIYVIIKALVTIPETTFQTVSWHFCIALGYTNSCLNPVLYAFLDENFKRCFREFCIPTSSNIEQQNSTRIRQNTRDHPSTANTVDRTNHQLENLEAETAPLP

Row | Structure (SMILES) | β-arr Max. Resp. (mu opioid receptor (MOR) [1]; [3]) | EC50 (mu opioid receptor (MOR) [1]; β-arrestin recruitment) [nM] | EC50 (mu opioid receptor (MOR) [2]; [4]) [nM] | cAMP Max. Resp. (mu opioid receptor (MOR) [2]; [5]) | β-arr Max. Resp. (mu opioid receptor (MOR) [1]; [6]) | cAMP Max. Resp. (mu opioid receptor (MOR) [2]; [7]) | EC50 (mu opioid receptor (MOR) [2]; [8]) [nM]
1 | Fc1ccnc(C2CCCCN2c2nc(Cl)ncc2F)c1 (stereo not shown) [compound 412] | D (D represents a maximal response of < 40%) | < 700 | < 700 | D (D represents a maximal response of < 40%) | – | – | –
2 | Fc1cnc(Cl)nc1N1CCCCC1c1ccc(C(F)(F)F)nc1 (stereo not shown) [compound 413] | D (D represents a maximal response of < 40%) | < 700 | < 700 | D (D represents a maximal response of < 40%) | – | – | –
3 | Cc1cccc(C2CCCCN2c2nc(Cl)ncc2F)n1 (stereo not shown) [compound 414] | D (D represents a maximal response of < 40%) | < 700 | < 700 | D (D represents a maximal response of < 40%) | – | – | –
4 | Fc1ccc(Cl)nc1N1CCCCC1c1ccc(C(F)(F)F)nc1 (stereo not shown) [compound 415] | D (D represents a maximal response of < 40%) | < 700 | < 700 | D (D represents a maximal response of < 40%) | – | – | –
5 | Fc1cnc(Cl)nc1N1CCCCC1c1cc(C(F)(F)F)c2[nH]cnc2c1 (stereo not shown) [compound 417] | D (D represents a maximal response of < 40%) | < 700 | < 700 | D (D represents a maximal response of < 40%) | – | – | –
6 | Fc1cnc(Cl)nc1N1CCCCC1c1ccc2nccn2c1 (stereo not shown) [compound 421] | – | < 700 | < 700 | – | D (D represents a maximal response of < 40%) | D (D represents a maximal response of < 40%) | –
7 | CCCC1(F)CCCN(c2nc(Cl)ncc2F)C1c1cccc(C(F)(F)F)c1 (stereo not shown) [compound 424] | – | > 2100 | – | – | F (F represents a maximal response of > 60%) | D (D represents a maximal response of < 40%) | > 2100
8 | Fc1ccc(C2CCCCN2c2cccc(Cl)c2)cc1Cl (stereo not shown) [compound 443] | – | > 2100 | > 2100 | – | F (F represents a maximal response of > 60%) | D (D represents a maximal response of < 40%) | –
9 | Fc1ccc(Cl)cc1CN1C2CCC(C2)C1c1cccc(C(F)(F)F)n1 (stereo not shown) [compound 444] | – | > 2100 | > 2100 | – | F (F represents a maximal response of > 60%) | D (D represents a maximal response of < 40%) | –
10 | OC1Cc2ccccc2C1N1CCCCC1c1ccc(F)c(Cl)c1 (stereo not shown) [compound 447] | – | > 2100 | > 2100 | – | D (D represents a maximal response of < 40%) | D (D represents a maximal response of < 40%) | –
11 | CC1CC(c2cccc(C(F)(F)F)c2)N(c2nc(Cl)ncc2F)C1 (stereo not shown) [compound 448] | – | > 2100 | – | – | F (F represents a maximal response of > 60%) | D (D represents a maximal response of < 40%) | > 2100
12 | COc1ccc(C2CCCCN2c2nc(Cl)c(C#N)cc2F)cc1Br (stereo not shown) [compound 449] | – | > 2100 | > 2100 | – | F (F represents a maximal response of > 60%) | D (D represents a maximal response of < 40%) | –
13 | CC1CC(c2cc(F)cc(C(F)(F)F)c2)N(c2nc(Cl)ncc2F)C1 (stereo not shown) [compound 450] | – | > 2100 | – | – | F (F represents a maximal response of > 60%) | E (E represents a maximal response of 40-60%) | > 2100
14 | C#Cc1cccc(N2CCCCC2c2cccc(C(F)(F)F)n2)c1 (stereo not shown) [compound 451] | – | > 2100 | > 2100 | – | F (F represents a maximal response of > 60%) | D (D represents a maximal response of < 40%) | –
15 | FC(F)(F)c1ccc(N2CCCCC2c2cccc(C(F)(F)F)n2)cc1 (stereo not shown) [compound 452] | – | > 2100 | > 2100 | – | E (E represents a maximal response of 40-60%) | D (D represents a maximal response of < 40%) | –
16 | Fc1ccc(C2CCCCN2c2ccc(C(F)(F)F)cc2)cc1Cl (stereo not shown) [compound 453] | – | > 2100 | > 2100 | – | D (D represents a maximal response of < 40%) | D (D represents a maximal response of < 40%) | –
17 | FC(F)(F)c1cccc(C2CCCCN2c2ccc(Cl)cc2)n1 (stereo not shown) [compound 454] | – | > 2100 | – | – | E (E represents a maximal response of 40-60%) | D (D represents a maximal response of < 40%) | > 2100
18 | COc1cccc(N2CCCCC2c2cccc(C(F)(F)F)n2)c1 (stereo not shown) [compound 455] | – | > 2100 | – | – | E (E represents a maximal response of 40-60%) | D (D represents a maximal response of < 40%) | > 2100
19 | Fc1cc(C2CC(C(F)(F)F)CN2c2nc(Cl)ncc2F)cc(C(F)(F)F)c1 (stereo not shown) [compound 457] | – | > 2100 | – | – | F (F represents a maximal response of > 60%) | E (E represents a maximal response of 40-60%) | > 2100
20 | Cc1ccc(N2CCCCC2c2ccc(F)c(Cl)c2)cc1 (stereo not shown) [compound 458] | – | > 2100 | > 2100 | – | E (E represents a maximal response of 40-60%) | D (D represents a maximal response of < 40%) | –
21 | FC(F)(F)c1cccc(C2CCCCN2c2cccc(Cl)c2)n1 (stereo not shown) [compound 459] | – | > 2100 | – | – | F (F represents a maximal response of > 60%) | D (D represents a maximal response of < 40%) | > 2100
22 | COc1ncc(F)c(N2CCCCC2c2ccc(F)c(Cl)c2)n1 (stereo not shown) [compound 461] | – | > 2100 | > 2100 | – | F (F represents a maximal response of > 60%) | E (E represents a maximal response of 40-60%) | –
23 | [N-]=[N+]=Nc1ccc(N2CCCCC2c2ccc(F)c(Cl)c2)cc1 (stereo not shown) [compound 462] | – | > 2100 | > 2100 | – | E (E represents a maximal response of 40-60%) | D (D represents a maximal response of < 40%) | –
24 | C#Cc1ccccc1N1CCCCC1c1ccc(F)c(Cl)c1 (stereo not shown) [compound 463] | – | > 2100 | – | – | D (D represents a maximal response of < 40%) | D (D represents a maximal response of < 40%) | > 2100
25 | Fc1ccc(C2CC(F)CN2c2nc(Cl)ncc2F)cc1Cl (stereo not shown) [compound 464] | – | > 2100 | – | – | E (E represents a maximal response of 40-60%) | E (E represents a maximal response of 40-60%) | > 2100
26 | COc1cccc(N2CCCCC2c2ccc(F)c(Cl)c2)c1 (stereo not shown) [compound 465] | – | > 2100 | > 2100 | – | E (E represents a maximal response of 40-60%) | D (D represents a maximal response of < 40%) | –
27 | COc1ccc(C2CC(F)(F)CN2c2nc(Cl)ncc2F)cc1Br (stereo not shown) [compound 466] | – | > 2100 | – | – | F (F represents a maximal response of > 60%) | D (D represents a maximal response of < 40%) | > 2100
28 | Fc1cnc(Cl)nc1N1CC(F)(F)CC1c1cccc(C(F)(F)F)c1 (stereo not shown) [compound 467] | – | > 2100 | – | – | F (F represents a maximal response of > 60%) | D (D represents a maximal response of < 40%) | > 2100
